# According to patent EP0189853A2, “1,6-Naphthyridin-2(1H)-ones having cardiotonic activity and preparation” (STERLING DRUG INC., priority 1985, dated 1986):
# How the values were obtained:
# papillary muscle = experiment: isolated guinea pig atria and papillary muscle procedure: papillary muscle force; format: cell-based; settings: Cavia porcellus, papillary muscle force, read-out: % Change from Control PMF
# Excerpt: (§1) Detailed descriptions of these test procedures appear in U.S. Patent No. 4,072,746, issued February 7, […].
# (§2) Cardiotonic activity in said isolated cat or guinea pig atria and papillary muscle procedure, is indicated by a significant increase, that is, greater than 25% (cat) or 30% (g.pig) in papillary muscle force and a significant increase, that is, greater than 25% (cat) or 30% (g.pig) in right atrial force, with a lower percentage increase (about one-half or less than the percentage increase in right atrial force or papillary muscle force) in right atrial rate. Because of the lower control active tensions of guinea pig tissues, the percent change from control values of both rate and force responses is elevated slightly, i.e., 5%. Thus, whereas cardiotonic activity is ascertained with a papillary muscle force or right atrial force increase of 26% and greater in the cat test, corresponding activity in the guinea pig test is designated with a papillary muscle force (PMr) or right atrial force (RAF) increase of 31% or greater. Representative examples of the compounds of Formulas I and II were tested by said guinea pig atria and papillary muscle procedure with the following results: […]
# anesthetized dog = anesthetized dog procedure: cardiac contractile force; format: in vivo; settings: administered intravenously
# Experimental: as §1
# When tested by said anesthetized dog procedure, the said cardiotonically active compounds of formulas I and II at doses of from about 0.030 to 3.0 mg/kg administered intravenously are found to cause significant increases, that is, 25% or greater, in cardiac contractile force or cardiac contractility with lower changes in heart rate and blood pressure. Representative examples of the invention were tested by this procedure and found to cause increases in contractile force as follows: […]
# guinea pig atria = experiment: isolated guinea pig atria and papillary muscle procedure: right atrial force; format: cell-based; settings: Cavia porcellus, read-out: % Change from Control RAF
# Excerpt: as §1, §2
Compound,activation at 3 µg/mL (papillary muscle) [%],activation at 10 µg/mL (papillary muscle) [%],activation at 30 µg/mL (papillary muscle) [%],% Increase In Contractile Force (anesthetized dog; dose 0.100 mg/kg) [%],activation at 3 µg/mL (guinea pig atria) [%],activation at 10 µg/mL (guinea pig atria) [%],activation at 30 µg/mL (guinea pig atria) [%],activation at 0.3 µg/mL (papillary muscle; dose 0.3 µg/ml) [%],activation at 1 µg/mL (papillary muscle) [%],% Increase In Contractile Force (anesthetized dog; dose 0.030 mg/kg) [%],% Increase In Contractile Force (anesthetized dog; dose 0.300 mg/kg) [%],activation at 0.3 µg/mL (guinea pig atria; dose 0.3 µg/ml) [%],activation at 1 µg/mL (guinea pig atria) [%],activation at 100 µg/mL (papillary muscle) [%],activation at 100 µg/mL (guinea pig atria) [%],% Increase In Contractile Force (anesthetized dog; dose 1.00 mg/kg) [%],% Increase In Contractile Force (anesthetized dog; dose 3.00 mg/kg) [%]
"O=c1ccc2c(Br)nccc2[nH]1 [Example 4, 5-bromo-1,6-naphthyridin-2(1H)-one]",73,85,110,135,57,49,134,,,,,,,,,,
"O=c1ccc2c(-n3ccnc3)nccc2[nH]1 [Example 6, 5-(lH-imidazol-1-yl)-1,6-naphthyridin-2(lH)-one]",55,90,96,,70,68,142,,,,,,,,,,
"Cc1cn(-c2nccc3[nH]c(=O)ccc23)cn1 [Example 7, 5-(4-Methyl-1H-imidazol-1-yl)-1,6-naphthyridin-2(1H)-one]",87,,,96,88,,,53,66,34,124,28,49,,,,
"Cc1nccn1-c1nccc2[nH]c(=O)ccc12 [Example 8, 5-(2-Methyl-1H-imidazol-1-yl)-1,6-naphthyridin-2(lH)-one]",,34,69,,,39,117,,,,,,,100,221,,
"Cc1ncc([N+](=O)[O-])n1-c1nccc2[nH]c(=O)ccc12 [Example 9, 5-(2-methyl-5-nitro-1H-imidazol-1-yl)-1,6-naphthyridin-2(1H)-one]",,24,43,,,15,16,,,,,,,103,116,,
"O=c1ccc2c(-n3cccn3)nccc2[nH]1 [Example 10, 5-(1H-pyrazol-1-yl)-1,6-naphthyridin-2(1H)-one]",,43,121,,,38,102,,,,,,,203,168,,
"O=c1ccc2c(-n3cncn3)nccc2[nH]1 [Example 11, 5-(lH-1,2,4-triazol-1-yl)-1,6-naphthyridin-2(1H)-one]",51,76,108,,28,31,140,,,,,,,,,,
"Cc1ncn(-c2nccc3[nH]c(=O)ccc23)c1C [Example 12, 5-(4,5-dimethyl-1H-imidazol-1-yl)-1,6-naphthyridin-2(1H)-one]",13,49,92,,7,14,50,,,,,,,,,54,136
"O=c1ccc2c(-n3cnc(-c4ccccc4)c3)nccc2[nH]1 [Example 13, 5-(4-phenyl-lH-imidazol-1-yl)-1,6-naphthyridin-2(1H)-one]",,25,34,,,33,24,,,,,,,36,1,40,87
"Cc1ccn(-c2nccc3[nH]c(=O)ccc23)n1 [Example 40, 5-(3-Methyl-1H-pyrazol-1-yl)-1,6-naphthyridin-2(lH)-one]",24,64,97,,26,89,84,,,,,,,,,,
"Cc1ncn(-c2nccc3[nH]c(=O)ccc23)n1 [Example 41, 5-(3-methyl-lH-1,2,4-triazole-1-yl)-1,6-naphthyridin-2(1H)-one]",56,124,,,37,67,,,36,,,,29,,,,
"O=c1ccc2c(-n3cnc(CO)c3)nccc2[nH]1 [Example 42, 5-[4-(Hydroxymethyl)-1H-imidazol-1-yl]-1,6-naphthyridin-2(lH)-one]",48,112,,,8,37,,,9,,,,-2,,,,
"O=c1ccc2c(-n3cnc(Br)c3)nccc2[nH]1 [Example 43, 5-(4-Bromo-1H-imidazol-1-yl)-1,6-naphthyridin-2(lH)-one]",71,128,,,43,56,,,47,,,,35,,,,
"O=c1ccc2c(-n3cnc(C(F)(F)F)c3)nccc2[nH]1 [Example 44, 5-[(4-(Trifluoromethyl)-lH-imidazol-1-yl)]-1,6-naphthyridin-2(lH)-one]",,30,31,,,35,36,,,,,,,69,101,,
"Cc1cc2[nH]c(=O)ccc2c(Br)n1 [Example 46, 5-Bromo-7-methyl-1,6-naphthyridin-2(1H)-one]",67,114,,,92,59,,,44,,,,41,,,,
"Cc1cn(-c2nc(C)cc3[nH]c(=O)ccc23)cn1 [Example 47, 7-Methyl-5-(4-methyl-1H-imidazol-1-yl)-1,6-naphthyridin-2(lH)-one]",48,164,,71,46,158,,,46,,125,,37,,,183,
"O=c1ccc2c(-n3cnc([N+](=O)[O-])c3)nccc2[nH]1 [Example 48, 5-(4-nitro-1H-imidazol-1-yl)-1,6-naphthyridin-2(1H)-one]",,37,71,,,18,42,,,,,,,107,170,,
